Measurements published in PubChem BioAssay (NCI).
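1) Cells in 96-well plates. 2) Compound, 48 h, 5 concentrations. 3) Linear interpolation between surrounding doses. 4) Unreached endpoint = highest concentration. GI50 is the concentration that inhibits growth by half. At the TGI there is no net growth.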

Experiments:
Experiment in all cases: NCI tumour cell line growth inhibition, 48 h
[1] = tested on: K-562 leukemia
[2] = tested on: OVCAR-5 ovarian
[3] = tested on: ACHN renal
[4] = tested on: HOP-62 NSCLC
[5] = tested on: SNB-75 CNS
[6] = tested on: HOP-92 NSCLC
[7] = tested on: UACC-62 melanoma
[8] = tested on: SNB-19 CNS
[9] = tested on: 786-0 renal
[10] = tested on: UO-31 renal

`Cc1ccnc(NC(c2ccccc2)c2ccc3cccnc3c2O)c1` (stereo not given) was tested, and the GI50 [1] was 3.27 µM, the TGI [1] was over 100 µM and the GI50 [2] was 8.86 µM. For the same compound, the TGI [2] was over 100 µM, the GI50 [3] was 3.46 µM and the TGI [3] was over 100 µM. For the same compound, the GI50 [4] was 4.41 µM, the TGI [4] was 96.2 µM and the GI50 [5] was 21.1 µM. For the same compound, the TGI [5] was over 100 µM, the GI50 [6] was 2.11 µM and the TGI [6] was 8.95 µM. It also gave a GI50 [7] of 4.42 µM, a TGI [7] of 87.9 µM and a GI50 [8] of 6.28 µM. It also gave a TGI [8] of over 100 µM, a GI50 [9] of 2.93 µM and a TGI [9] of 35.1 µM. The GI50 [10] was 1.3 µM and the TGI [10] was 14.6 µM.

With `COc1cc(=O)oc(/C=C/CO)c1C` the TGI [1] was over 100 µM, the TGI [2] was over 100 µM and the TGI [3] was over 100 µM. The TGI [4] was over 100 µM, the TGI [5] was over 100 µM and the TGI [6] was over 100 µM. It also gave a TGI [7] of over 100 µM, a TGI [8] of over 100 µM and a TGI [9] of over 100 µM. For the same compound, the TGI [10] was over 100 µM.

`COC(=O)C1=Cc2cn(S(=O)(=O)c3ccc(C)cc3)c3cccc(c23)C(C=C(C)C)N1C(C)=O` (stereo not given) showed a TGI [1] of over 100 µM, a TGI [2] of over 100 µM and a TGI [3] of over 100 µM. The TGI [4] was over 100 µM, the TGI [5] was over 100 µM and the TGI [6] was over 100 µM. It also gave a TGI [7] of over 100 µM, a TGI [8] of over 100 µM and a TGI [9] of over 100 µM. For the same compound, the TGI [10] was over 100 µM.

`COc1c(OC)c(OC)c(-c2cc(=O)c3c(OC)c(OC)c(OC)c(OC)c3o2)c(OC)c1OC` gave a TGI [1] of over 100 µM, a TGI [2] of over 100 µM and a TGI [3] of over 100 µM. It also gave a TGI [4] of over 100 µM, a TGI [5] of over 100 µM and a TGI [6] of 44.9 µM. The TGI [7] was over 100 µM, the TGI [8] was over 100 µM and the TGI [9] was 37 µM. For the same compound, the TGI [10] was over 100 µM.

`O=C(c1ccccc1)c1c2n(c3c1cc(O)c1ccccc13)CCN2` showed a GI50 [1] of 2.56 µM, a TGI [1] of 8.2 µM and a GI50 [2] of 0.72 µM. For the same compound, the TGI [2] was 7.91 µM, the GI50 [3] was 13.5 µM and the TGI [3] was 33.1 µM. The GI50 [4] was 5.6 µM, the TGI [4] was 17.9 µM and the GI50 [5] was 2.22 µM. It also gave a TGI [5] of 4.76 µM, a GI50 [6] of 2.63 µM and a TGI [6] of 9.36 µM. It also gave a GI50 [7] of 5.15 µM, a TGI [7] of 17.4 µM and a GI50 [8] of 1.85 µM. It also gave a TGI [8] of 3.46 µM, a GI50 [9] of 9.23 µM and a TGI [9] of 31.2 µM. For the same compound, the GI50 [10] was 16.2 µM and the TGI [10] was 31.3 µM.

`C=CCn1c(=O)c(C(=O)NC(=O)OCC)cn(C2CCCCC2)c1=O` showed a TGI [1] of over 100 µM, a TGI [2] of over 100 µM and a TGI [3] of over 100 µM. For the same compound, the TGI [4] was over 100 µM, the TGI [5] was over 100 µM and the TGI [6] was over 100 µM. The TGI [7] was over 100 µM, the TGI [8] was over 100 µM and the TGI [9] was over 100 µM. The TGI [10] was over 100 µM.

`COC1/C=C/OC2(C)Oc3c(C)c(O)c4c(O)c(c(C=NOC(c5ccccc5)c5ccccc5)c(O)c4c3C2=O)NC(=O)/C(C)=C/C=C/C(C)C(O)C(C)C(O)C(C)C(OC(C)=O)C1C` (stereo not given) was tested, and the GI50 [1] was 2.17 µM, the TGI [1] was 50 µM and the GI50 [2] was 0.984 µM. For the same compound, the TGI [2] was 2.49 µM, the GI50 [3] was 1.17 µM and the TGI [3] was 2.73 µM. For the same compound, the GI50 [4] was 0.916 µM, the TGI [4] was 1.85 µM and the GI50 [5] was 1.34 µM. For the same compound, the TGI [5] was 5.73 µM, the GI50 [6] was 0.972 µM and the TGI [6] was 2.74 µM. For the same compound, the GI50 [7] was 0.935 µM, the TGI [7] was 1.97 µM and the GI50 [8] was 1.89 µM. It also gave a TGI [8] of 6.87 µM, a GI50 [9] of 1.29 µM and a TGI [9] of 3.06 µM. For the same compound, the GI50 [10] was 1.65 µM and the TGI [10] was 7.74 µM.

In the case of `[Au+].c1c[n-]cn1.c1ccc([PH+](c2ccccc2)c2ccccc2)cc1`, the GI50 [1] is reported as 2.61 µM, the TGI [1] is reported as 30.4 µM and the GI50 [2] is reported as 20.9 µM. It also gave a TGI [2] of 42.3 µM, a GI50 [3] of 6.19 µM and a TGI [3] of 17.6 µM. For the same compound, the GI50 [4] was 6.24 µM, the TGI [4] was 43 µM and the GI50 [5] was 15.2 µM. The TGI [5] was 33.7 µM, the GI50 [6] was 2.36 µM and the TGI [6] was 4.79 µM. It also gave a GI50 [7] of 5.17 µM, a TGI [7] of 29.2 µM and a GI50 [8] of 7.28 µM. It also gave a TGI [8] of 18 µM, a GI50 [9] of 1.66 µM and a TGI [9] of 3.04 µM. The GI50 [10] was 8.36 µM and the TGI [10] was 19.4 µM.

Work on `COC(=O)[C@H](C)[C@@H]1CC[C@](C)(CCC2=C(C)CCCC2(C)C)OO1` yielded a TGI [1] of over 25 µM, a TGI [2] of over 25 µM and a TGI [3] of over 25 µM. The TGI [4] was over 25 µM, the TGI [5] was over 25 µM and the TGI [6] was over 25 µM. For the same compound, the TGI [7] was over 25 µM, the TGI [8] was over 25 µM and the TGI [9] was over 25 µM. The TGI [10] was over 25 µM.

`COc1cc2oc(-c3ccc(O)cc3)cc(=O)c2c(OC)c1O` gave a TGI [1] of over 100 µM, a TGI [2] of over 100 µM and a TGI [3] of over 100 µM. It also gave a TGI [4] of over 100 µM, a TGI [5] of 55.1 µM and a TGI [6] of over 100 µM. For the same compound, the TGI [7] was over 100 µM, the TGI [8] was over 100 µM and the TGI [9] was over 100 µM. For the same compound, the TGI [10] was over 100 µM.

`COc1ccc(N2C(=O)C3C=CC(n4[nH]c(=O)n(Cc5ccccc5)c4=O)CC3C2=O)cc1` (stereo not given) was tested, and the TGI [1] was over 100 µM, the TGI [2] was over 100 µM and the TGI [3] was over 100 µM. It also gave a TGI [4] of over 100 µM, a TGI [5] of over 100 µM and a TGI [6] of over 100 µM. It also gave a TGI [7] of over 100 µM, a TGI [8] of over 100 µM and a TGI [9] of over 100 µM. The TGI [10] was over 100 µM.

In the case of `NCCCCCCCCCn1c2c(c3ccccc3c1=O)C(=O)c1ccccc1-2`, the GI50 [1] is reported as 7.42 µM, the TGI [1] is reported as 32.3 µM and the GI50 [2] is reported as 9.6 µM. The TGI [2] was 19.5 µM, the GI50 [3] was 8.2 µM and the TGI [3] was 17 µM. It also gave a GI50 [4] of 6.84 µM, a TGI [4] of 16.2 µM and a GI50 [5] of 10.7 µM. For the same compound, the TGI [5] was 21.7 µM, the GI50 [6] was 10.1 µM and the TGI [6] was 21.1 µM. For the same compound, the GI50 [7] was 9.35 µM, the TGI [7] was 18.1 µM and the GI50 [8] was 9.27 µM. For the same compound, the TGI [8] was 22.6 µM, the GI50 [9] was 7.72 µM and the TGI [9] was 15.9 µM. For the same compound, the GI50 [10] was 7.68 µM and the TGI [10] was 18.6 µM.

Work on `CC(O)c1ccc(C(O)/C(=N\NC(=O)c2ccncc2)c2nc3ccc([N+](=O)[O-])cc3[nH]c2=O)cc1` (stereo not given) yielded a TGI [1] of over 100 µM, a TGI [2] of over 100 µM and a TGI [3] of over 100 µM. For the same compound, the TGI [4] was over 100 µM, the TGI [5] was over 100 µM and the TGI [6] was over 100 µM. The TGI [7] was over 100 µM, the TGI [8] was over 100 µM and the TGI [9] was over 100 µM. For the same compound, the TGI [10] was over 100 µM.

`Cc1cc(Cl)ccc1Nc1nc2c(s1)C(=O)c1ccccc1C2=O` was tested, and the TGI [1] was over 23.3 µM, the TGI [2] was 8.61 µM and the TGI [3] was 10.3 µM. The TGI [4] was 9.72 µM, the TGI [5] was 22 µM and the TGI [6] was 27.2 µM. For the same compound, the TGI [7] was 7.41 µM, the TGI [8] was 16.3 µM and the TGI [9] was 4.38 µM. It also gave a TGI [10] of 11.6 µM.

With `O=C1NC2OC(CO)C(O)C(O)C2O1` (stereo not given) the TGI [1] was over 100 µM, the TGI [2] was over 100 µM and the TGI [3] was over 100 µM. For the same compound, the TGI [4] was over 100 µM, the TGI [5] was over 100 µM and the TGI [6] was over 100 µM. The TGI [7] was over 100 µM, the TGI [8] was over 100 µM and the TGI [9] was over 100 µM. The TGI [10] was over 100 µM.

Compound `CCN(CC)CCNC(=O)C(Cl)=C1C(Cl)=C(Cl)C(Cl)=C1Cl` has a GI50 [1] of 3.56 µM, a TGI [1] of over 100 µM and a GI50 [2] of 4.82 µM. The TGI [2] was 27.8 µM, the GI50 [3] was 3.35 µM and the TGI [3] was 24.6 µM. For the same compound, the GI50 [4] was 3.94 µM, the TGI [4] was 15.5 µM and the GI50 [5] was 2.21 µM. It also gave a TGI [5] of 6.78 µM, a GI50 [6] of 2.37 µM and a TGI [6] of 8.62 µM. The GI50 [7] was 2.18 µM, the TGI [7] was 12.4 µM and the GI50 [8] was 10.9 µM. The TGI [8] was 29.6 µM, the GI50 [9] was 5.07 µM and the TGI [9] was 41.7 µM. For the same compound, the GI50 [10] was 6.88 µM and the TGI [10] was 26 µM.

Work on `Cc1ccc(S(=O)(=O)OC2CSSCC2OS(=O)(=O)c2ccc(C)cc2)cc1` (stereo not given) yielded a TGI [1] of 47.6 µM, a TGI [2] of 38 µM and a TGI [3] of 28.9 µM. For the same compound, the TGI [4] was 43.2 µM, the TGI [5] was 28.1 µM and the TGI [6] was 23.7 µM. For the same compound, the TGI [7] was 24.6 µM, the TGI [8] was 31.7 µM and the TGI [9] was 25.1 µM. For the same compound, the TGI [10] was 28.5 µM.

With `N/C(=N/N=C/c1cccc(F)c1)NO` the TGI [1] was over 100 µM, the TGI [2] was over 100 µM and the TGI [3] was over 100 µM. It also gave a TGI [4] of 82.1 µM, a TGI [5] of over 100 µM and a TGI [6] of over 100 µM. The TGI [7] was 41 µM, the TGI [8] was over 100 µM and the TGI [9] was over 100 µM. For the same compound, the TGI [10] was over 100 µM.
